The results in this text go back to ChEMBL document CHEMBL1126968, “Synthesis and biological evaluation of some 25,26-epoxy-1,24-dihydroxyvitamin D3 analogues” (1993).

One experiment has as its system HL-60. The experiment can be described thus: Percent activity for its capability to induce differentiation of human promyeloid leukemia HL-60 cells. Type of experiment: functional. Further details: concentration or dose not given beside the values.
The target in experiment [1] is T1, Vitamin D3 receptor (Sus scrofa) (UniProt A3RGC1).
T1 sequence (whole entry): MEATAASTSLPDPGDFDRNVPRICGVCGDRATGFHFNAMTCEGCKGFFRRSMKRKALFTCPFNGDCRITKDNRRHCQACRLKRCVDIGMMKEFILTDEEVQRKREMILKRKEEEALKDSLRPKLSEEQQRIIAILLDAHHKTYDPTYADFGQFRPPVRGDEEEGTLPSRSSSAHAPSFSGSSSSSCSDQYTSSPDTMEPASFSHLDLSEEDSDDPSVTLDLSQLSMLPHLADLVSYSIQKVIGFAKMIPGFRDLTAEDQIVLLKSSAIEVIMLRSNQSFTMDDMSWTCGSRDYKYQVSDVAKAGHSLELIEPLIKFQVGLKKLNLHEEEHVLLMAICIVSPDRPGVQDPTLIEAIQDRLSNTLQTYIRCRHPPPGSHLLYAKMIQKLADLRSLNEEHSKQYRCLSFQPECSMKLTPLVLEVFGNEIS
The experiment in a line: Inhibition of [3H]1-alpha,25-dihydroxy-vitamin D3 binding to porcine intestinal mucosal vitamin D receptor.

In the experiment with HL-60, `C=C1/C(=C\C=C2/CCC[C@]3(C)[C@@H]([C@H](C)/C=C/[C@H](O)[C@]4(C)CO4)CC[C@@H]23)C[C@@H](O)C[C@@H]1O` displayed an Activity of 30%. The Receptor binding in experiment [1] came out at 8.
`C=C1/C(=C\C=C2/CCC[C@]3(C)[C@@H]([C@H](C)CC[C@@H](O)[C@@]4(C)CO4)CC[C@@H]23)C[C@@H](O)C[C@@H]1O`: the Activity with HL-60 was determined as 12%. For the same molecule, the Receptor binding in experiment [1] was determined as 20.
For `C=C1/C(=C\C=C2/CCC[C@]3(C)[C@@H]([C@H](C)CC[C@H](O)[C@]4(C)CO4)CC[C@@H]23)C[C@@H](O)C[C@@H]1O`, the Activity with HL-60 was determined as 7%. In addition, the Receptor binding in experiment [1] amounted to 5.
In the experiment with HL-60, `C=C1/C(=C\C=C2/CCC[C@]3(C)[C@@H]([C@H](C)CC[C@H](O)[C@@]4(C)CO4)CC[C@@H]23)C[C@@H](O)C[C@@H]1O` displayed an Activity of 44%. Besides, the Receptor binding in experiment [1] was 1.
`C=C1/C(=C\C=C2/CCC[C@]3(C)[C@@H]([C@H](C)CCCC4(C)CO4)CC[C@@H]23)C[C@@H](O)C[C@@H]1O` (some centres undefined): the Activity with HL-60 came out at 37%. Besides, in experiment [1], the Receptor binding worked out at 27.
On the same counts, the results for `C=C1/C(=C\C=C2/CCC[C@]3(C)[C@@H]([C@H](C)CC[C@@H](O)[C@]4(C)CO4)CC[C@@H]23)C[C@@H](O)C[C@@H]1O` are 33% and 9.
`C=C1/C(=C\C=C2/CCC[C@]3(C)[C@@H]([C@H](C)/C=C/[C@@H](O)[C@@]4(C)CO4)CC[C@@H]23)C[C@@H](O)C[C@@H]1O`: the Activity in the experiment with HL-60 came out at 30%. This molecule registered a Receptor binding in experiment [1] of 8.
